According to publication PMC13195669, “GPR3 Ligands Discovered through Combined Virtual and Conformational Biosensor-Based Screening” (Journal of the American Chemical Society, 2026):

Tests used:
[1] = target: T1, adenosine A2B receptor (A2BR) (Homo sapiens, UniProt P29275); assay: cAMP GloSensor 22F, agonist-stimulated A2BR; format: cell-based; conditions: preincubation with 100 μM or 10 μM
T1 construct: expressed in transfected cells; host or cells: HEK293A, transient
T1 sequence (P29275 1-332): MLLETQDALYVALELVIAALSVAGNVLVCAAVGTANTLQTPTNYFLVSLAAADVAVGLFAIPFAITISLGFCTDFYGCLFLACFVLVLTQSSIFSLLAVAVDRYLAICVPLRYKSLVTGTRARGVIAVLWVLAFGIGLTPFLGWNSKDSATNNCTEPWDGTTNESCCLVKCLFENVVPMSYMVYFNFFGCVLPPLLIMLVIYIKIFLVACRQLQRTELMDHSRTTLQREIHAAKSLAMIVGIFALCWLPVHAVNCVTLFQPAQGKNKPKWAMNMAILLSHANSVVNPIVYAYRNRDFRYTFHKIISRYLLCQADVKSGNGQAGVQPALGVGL
Experimental: Next, we used the classical cAMP GloSensor technology to assess the target selectivity profile of 33. […] In addition, we tested the effects of 33 on cAMP changes mediated by agonist-stimulated GPCRs phylogenetically close to GPR3 and coupling to Gs or Gi/o proteins.
(§1) BRET-based GPCR conformational sensor experiments
Cells expressing the conformational GPCR biosensors were grown for 24 h (stable cells) or 48 h (transiently transfected cells) in white 96-well plates and washed with 100 µl of HBSS. After washing, cells were incubated for 2 minutes with a 1/1000 solution of the furimazine stock solution (Promega; cat. no. N1662). Three baseline BRET reads were recorded and averaged prior to the addition of serial dilutions of ligands or veh icle control and subsequent BRET reads. […] BRE T donor emission was quantified with a 470/80 nm monochromator. […] Experiments were carried out using a CLARIOstar plate reader.
FRET- and BRET-based measurements of cAMP levels and Gs dissociation/reassociation Transfected cells grown in black 96-well plates were washed twice with 100 µl of HBSS 48 h after transfection and incubated with HBSS. […] Three baseline FRET/BRET reads were recorded and averaged prior to the addition of serial dilutions of ligands or vehicle control and sub-sequent FRET/BRET reads. […] FRET donor emission was quantified with a 480/10 nm filter. […]
Luminescence measurement using the cAMP GloSensor™ 22F […]

[2] = target: T2, GPR3 T3.37A mutant (Homo sapiens, UniProt P46089, T121A); assay: GPR3 conformational biosensor with T3.37A point mutation; format: cell-based; conditions: wildtype vs mutant biosensor; transiently transfected HEK293A
T2 construct: ligated to the full-length C-terminus; expressed in transfected cells; host or cells: HEK293A, transient
T2 sequence (P46089 2-330 T121A limits assumed): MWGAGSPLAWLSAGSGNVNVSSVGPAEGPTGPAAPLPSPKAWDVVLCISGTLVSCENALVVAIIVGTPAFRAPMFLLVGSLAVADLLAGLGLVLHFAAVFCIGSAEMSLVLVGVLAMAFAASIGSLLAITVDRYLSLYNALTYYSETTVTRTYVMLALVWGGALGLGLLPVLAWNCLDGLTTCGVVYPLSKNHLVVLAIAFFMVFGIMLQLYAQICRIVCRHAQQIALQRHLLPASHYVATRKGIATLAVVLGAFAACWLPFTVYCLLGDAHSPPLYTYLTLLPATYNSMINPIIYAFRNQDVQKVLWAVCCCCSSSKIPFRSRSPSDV
From the text: To develop a hypothesis for the cause of the significant loss in efficacy from VH1 to 33, we computationally predicted the binding poses of both molecules in GPR3 (Figure a). […] In contrast, the cyclopropyl ring of 33 is still buried in the receptor’s transmembrane core. […] We also challenged this binding model of 33 with another GPR3 biosensor variant which harbors the T^3.37A point mutation in transmembrane helix 3. According to an alternative predicted pose of 33 obtained with Boltz-2 (c.f., SI – Materials and Methods section), this mutation should hamper 33 binding to GPR3.
as §1
Cells expressing the conformational GPCR biosensors were grown for 24 h (stable cells) or 48 h (transiently transfected cells) in white 96-well plates and washed with 100 µl of HBSS. […] Three baseline BRET reads were recorded and averaged prior to the addition of serial dilutions of ligands or veh icle control and subsequent BRET reads. […] BRE T donor emission was quantified with a 470/80 nm monochromator. […] Experiments were carried out using a CLARIOstar plate reader.
FRET- and BRET-based measurements of cAMP levels and Gs dissociation/reassociation Transfected cells grown in black 96-well plates were washed twice with 100 µl of HBSS 48 h after transfection and incubated with HBSS. […] FRET donor emission was quantified with a 480/10 nm filter. […]

## N=c1n(Cc2ccccc2)c2ccccc2n1CC1CC1 [compound 33]
[1]
  effect on agonist-induced cAMP change mediated by A2BR: neither 100 μM nor 10 μM 33 significantly altered
[2]
  effect of T3.37A mutation on activity: no such effect on 33 activity
